From US20020111274A1, “1-alkyl-3-[1-(substituted phenyl) benzotriazol-6-yl] uracils” (BASF Aktiengesellschaft, priority 2000, published 2002)

What was measured:
Design in all cases: scale not given here
CASOB Sicklepod [1] = test: Postemergence herbicidal evaluation, CASOB; type: in vivo, Cassia obtusifolia, L.; details: postemergence spray, rated about two-three weeks after treatment
Method in brief: (§1)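 Postemergence spray, 40 psi nozzle, on ~2-week seedlings. Carrier: acetone/water 80/20, 1.0% methylated seed oil; dose ~0.006–0.400 kg/ha. Scored visually at 2–3 weeks.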

[2] = test system: TRZAWR Wheat, Winter, cv Riband; test: Preemergence herbicidal evaluation, TRZAWR; type: in vivo, Triticum aestivum; details: preemergence
Method in brief: (§2)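 Preemergence soil spray: aqueous acetone, ~0.013–0.800 kg/ha, applied right after sowing (seed/potting-soil mix over ~1 in soil). Greenhouse, routine watering. Scored 4–5 wk post-treatment on a rating scale.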

GLXMAW Soybean, Williams [3] = test: Postemergence herbicidal evaluation, GLXMAW; type: in vivo, Glycine max, (L.) Merr. cv Williams; details: postemergence spray, rated about two-three weeks after treatment
Method in brief: as §1

ECHOG Barnyardgrass [4] = test: Preemergence herbicidal evaluation, ECHOG; type: in vivo, Echinochloa crus-galli, (L.) Beau; details: preemergence
Method in brief: as §2

ORYSAT Rice, Tebonnet [5] = test: Postemergence herbicidal evaluation, ORYSAT; type: in vivo, Oryza sativa, (L.); details: postemergence spray, rated about two-three weeks after treatment
Method in brief: as §1

GALAP Galium [6] = test: Postemergence herbicidal evaluation, GALAP; type: in vivo, Galium aparine; details: postemergence spray, rated about two-three weeks after treatment
Method in brief: as §1

SETVI Foxtail, Green [7] = test: Postemergence herbicidal evaluation, SETVI; type: in vivo, Setaria viridis, (L.) Beau; details: postemergence spray, rated about two-three weeks after treatment
Method in brief: as §1

SETVI Foxtail, Green [8] = test: Preemergence herbicidal evaluation, SETVI; type: in vivo, Setaria viridis, (L.) Beau; details: preemergence
Method in brief: as §2

CASOB Sicklepod [9] = test: Preemergence herbicidal evaluation, CASOB; type: in vivo, Cassia obtusifolia, L.; details: preemergence
Method in brief: as §2

GLXMAW Soybean, Williams [10] = test: Preemergence herbicidal evaluation, GLXMAW; type: in vivo, Glycine max, (L.) Merr. cv Williams; details: preemergence
Method in brief: as §2

[11] = test system: CHEAL Lambsquarters, Common; test: Preemergence herbicidal evaluation, CHEAL; type: in vivo, Chenopodium album, L.; details: preemergence
Method in brief: as §2

[12] = test system: TRZAWR Wheat, Winter, cv Riband; test: Postemergence herbicidal evaluation, TRZAWR; type: in vivo, Triticum aestivum; details: postemergence spray, rated about two-three weeks after treatment
Method in brief: as §1

ZEAMX Corn, Field [13] = test: Preemergence herbicidal evaluation, ZEAMX; type: in vivo, Zea mays, L. (Sammel-Bezeichnung); details: preemergence
Method in brief: as §2

[14] = test system: IPOHE Morningglory, Ivyleaf; test: Preemergence herbicidal evaluation, IPOHE; type: in vivo, Ipomoea hederacea, (L.) Jacq.; details: preemergence
Method in brief: as §2

ORYSAT Rice, Tebonnet [15] = test: Preemergence herbicidal evaluation, ORYSAT; type: in vivo, Oryza sativa, (L.); details: preemergence
Method in brief: as §2

ECHOG Barnyardgrass [16] = test: Postemergence herbicidal evaluation, ECHOG; type: in vivo, Echinochloa crus-galli, (L.) Beau; details: postemergence spray, rated about two-three weeks after treatment
Method in brief: as §1

GALAP Galium [17] = test: Preemergence herbicidal evaluation, GALAP; type: in vivo, Galium aparine; details: preemergence
Method in brief: as §2

[18] = test system: IPOHE Morningglory, Ivyleaf; test: Postemergence herbicidal evaluation, IPOHE; type: in vivo, Ipomoea hederacea, (L.) Jacq.; details: postemergence spray, rated about two-three weeks after treatment
Method in brief: as §1

ABUTH Velvetleaf [19] = test: Preemergence herbicidal evaluation, ABUTH; type: in vivo, Abutilon theophrasti, Medic.; details: preemergence
Method in brief: as §2

AMBEL Ragweed, Common [20] = test: Preemergence herbicidal evaluation, AMBEL; type: in vivo, Ambrosia artemisifolia, L.; details: preemergence
Method in brief: as §2

ZEAMX Corn, Field [21] = test: Postemergence herbicidal evaluation, ZEAMX; type: in vivo, Zea mays, L. (Sammel-Bezeichnung); details: postemergence spray, rated about two-three weeks after treatment
Method in brief: as §1

[22] = test system: CHEAL Lambsquarters, Common; test: Postemergence herbicidal evaluation, CHEAL; type: in vivo, Chenopodium album, L.; details: postemergence spray, rated about two-three weeks after treatment
Method in brief: as §1

AMBEL Ragweed, Common [23] = test: Postemergence herbicidal evaluation, AMBEL; type: in vivo, Ambrosia artemisifolia, L.; details: postemergence spray, rated about two-three weeks after treatment
Method in brief: as §1

ABUTH Velvetleaf [24] = test: Postemergence herbicidal evaluation, ABUTH; type: in vivo, Abutilon theophrasti, Medic.; details: postemergence spray, rated about two-three weeks after treatment
Method in brief: as §1

COc1ccccc1-n1nnc2cc(F)c(-n3c(=O)cc(C(F)(F)F)n(C)c3=O)cc21 [Example 16, 3-[5-Fluoro-1-(2-Methoxyphenyl)-1H-1,2,3-Benzotriazol-6-yl]-1-Methyl-6-(Trifluoromethyl)-2,4(1H,3H)-Pyrmidinedione]
7.0: Postemergence herbicidal rating SETVI (SETVI Foxtail, Green [7]; 0.032 kg/ha) | ZEAMX herbicidal rating (ZEAMX Corn, Field [13]; rate 0.032 kg/ha) | ORYSAT herbicidal rating (ORYSAT Rice, Tebonnet [15]; rate 0.016 kg/ha) | ORYSAT herbicidal rating (ORYSAT Rice, Tebonnet [15]; rate 0.032 kg/ha)
4.0: Postemergence herbicidal rating ORYSAT (ORYSAT Rice, Tebonnet [5]; 0.062 kg/ha) | Postemergence herbicidal rating GALAP (GALAP Galium [6]; 0.062 kg/ha)
3.0: Postemergence herbicidal rating ORYSAT (ORYSAT Rice, Tebonnet [5]; 0.016 kg/ha) | Postemergence herbicidal rating ORYSAT (ORYSAT Rice, Tebonnet [5]; 0.032 kg/ha) | Postemergence herbicidal rating GALAP (GALAP Galium [6]; 0.016 kg/ha) | Postemergence herbicidal rating GALAP (GALAP Galium [6]; 0.032 kg/ha) | Postemergence herbicidal rating TRZAWR ([12]; 0.016 kg/ha) | IPOHE herbicidal rating ([14]; rate 0.016 kg/ha) | IPOHE herbicidal rating ([14]; rate 0.032 kg/ha) | Postemergence herbicidal rating ECHCG (ECHOG Barnyardgrass [16]; 0.032 kg/ha)
5.0: Postemergence herbicidal rating GLXMAW (GLXMAW Soybean, Williams [3]; 0.008 kg/ha) | Postemergence herbicidal rating GLXMAW (GLXMAW Soybean, Williams [3]; 0.016 kg/ha) | Postemergence herbicidal rating SETVI (SETVI Foxtail, Green [7]; 0.016 kg/ha) | Postemergence herbicidal rating ECHCG (ECHOG Barnyardgrass [16]; 0.062 kg/ha) | Postemergence herbicidal rating IPOHE ([18]; 0.008 kg/ha) | Postemergence herbicidal rating IPOHE ([18]; 0.016 kg/ha) | Postemergence herbicidal rating CHEAL ([22]; 0.008 kg/ha) | Postemergence herbicidal rating CHEAL ([22]; 0.016 kg/ha)
5.5: Postemergence herbicidal rating TRZAWR ([12]; 0.062 kg/ha) | Postemergence herbicidal rating ZEAMX (ZEAMX Corn, Field [21]; 0.008 kg/ha)
0.0: Postemergence herbicidal rating GALAP (GALAP Galium [6]; 0.008 kg/ha) | CASOB herbicidal rating (CASOB Sicklepod [9]; rate 0.016 kg/ha) | CASOB herbicidal rating (CASOB Sicklepod [9]; rate 0.032 kg/ha) | GALAP herbicidal rating (GALAP Galium [17]; rate 0.016 kg/ha) | GALAP herbicidal rating (GALAP Galium [17]; rate 0.032 kg/ha)
6.0: Postemergence herbicidal rating CASOB (CASOB Sicklepod [1]; 0.008 kg/ha) | Postemergence herbicidal rating CASOB (CASOB Sicklepod [1]; 0.016 kg/ha) | Postemergence herbicidal rating CASOB (CASOB Sicklepod [1]; 0.032 kg/ha) | TRZAWR herbicidal rating ([2]; rate 0.016 kg/ha) | Postemergence herbicidal rating GLXMAW (GLXMAW Soybean, Williams [3]; 0.032 kg/ha) | AMBEL herbicidal rating (AMBEL Ragweed, Common [20]; rate 0.016 kg/ha) | Postemergence herbicidal rating ZEAMX (ZEAMX Corn, Field [21]; 0.016 kg/ha) | Postemergence herbicidal rating ZEAMX (ZEAMX Corn, Field [21]; 0.032 kg/ha) | Postemergence herbicidal rating ZEAMX (ZEAMX Corn, Field [21]; 0.062 kg/ha) | Postemergence herbicidal rating CHEAL ([22]; 0.032 kg/ha)
3.5: Postemergence herbicidal rating TRZAWR ([12]; 0.032 kg/ha)
8.0: TRZAWR herbicidal rating ([2]; rate 0.032 kg/ha) | TRZAWR herbicidal rating ([2]; rate 0.062 kg/ha) | ZEAMX herbicidal rating (ZEAMX Corn, Field [13]; rate 0.016 kg/ha) | ZEAMX herbicidal rating (ZEAMX Corn, Field [13]; rate 0.062 kg/ha) | ZEAMX herbicidal rating (ZEAMX Corn, Field [13]; rate 0.125 kg/ha) | Postemergence herbicidal rating CHEAL ([22]; 0.062 kg/ha)
9.0: Postemergence herbicidal rating CASOB (CASOB Sicklepod [1]; 0.062 kg/ha) | TRZAWR herbicidal rating ([2]; rate 0.125 kg/ha) | ECHCG herbicidal rating (ECHOG Barnyardgrass [4]; rate 0.016 kg/ha) | ECHCG herbicidal rating (ECHOG Barnyardgrass [4]; rate 0.032 kg/ha) | ECHCG herbicidal rating (ECHOG Barnyardgrass [4]; rate 0.062 kg/ha) | ECHCG herbicidal rating (ECHOG Barnyardgrass [4]; rate 0.125 kg/ha) | Postemergence herbicidal rating SETVI (SETVI Foxtail, Green [7]; 0.062 kg/ha) | SETVI herbicidal rating (SETVI Foxtail, Green [8]; rate 0.016 kg/ha) | SETVI herbicidal rating (SETVI Foxtail, Green [8]; rate 0.032 kg/ha) | SETVI herbicidal rating (SETVI Foxtail, Green [8]; rate 0.062 kg/ha) | SETVI herbicidal rating (SETVI Foxtail, Green [8]; rate 0.125 kg/ha) | CASOB herbicidal rating (CASOB Sicklepod [9]; rate 0.062 kg/ha) | CASOB herbicidal rating (CASOB Sicklepod [9]; rate 0.125 kg/ha) | GLXMAW herbicidal rating (GLXMAW Soybean, Williams [10]; rate 0.016 kg/ha) | GLXMAW herbicidal rating (GLXMAW Soybean, Williams [10]; rate 0.032 kg/ha) | GLXMAW herbicidal rating (GLXMAW Soybean, Williams [10]; rate 0.062 kg/ha) | GLXMAW herbicidal rating (GLXMAW Soybean, Williams [10]; rate 0.125 kg/ha) | CHEAL herbicidal rating ([11]; rate 0.016 kg/ha) | CHEAL herbicidal rating ([11]; rate 0.032 kg/ha) | CHEAL herbicidal rating ([11]; rate 0.062 kg/ha) | CHEAL herbicidal rating ([11]; rate 0.125 kg/ha) | IPOHE herbicidal rating ([14]; rate 0.062 kg/ha) | IPOHE herbicidal rating ([14]; rate 0.125 kg/ha) | ORYSAT herbicidal rating (ORYSAT Rice, Tebonnet [15]; rate 0.062 kg/ha) | ORYSAT herbicidal rating (ORYSAT Rice, Tebonnet [15]; rate 0.125 kg/ha) | GALAP herbicidal rating (GALAP Galium [17]; rate 0.062 kg/ha) | GALAP herbicidal rating (GALAP Galium [17]; rate 0.125 kg/ha) | Postemergence herbicidal rating IPOHE ([18]; 0.032 kg/ha) | Postemergence herbicidal rating IPOHE ([18]; 0.062 kg/ha) | ABUTH herbicidal rating (ABUTH Velvetleaf [19]; rate 0.016 kg/ha) | ABUTH herbicidal rating (ABUTH Velvetleaf [19]; rate 0.032 kg/ha) | ABUTH herbicidal rating (ABUTH Velvetleaf [19]; rate 0.062 kg/ha) | ABUTH herbicidal rating (ABUTH Velvetleaf [19]; rate 0.125 kg/ha) | AMBEL herbicidal rating (AMBEL Ragweed, Common [20]; rate 0.032 kg/ha) | AMBEL herbicidal rating (AMBEL Ragweed, Common [20]; rate 0.062 kg/ha) | AMBEL herbicidal rating (AMBEL Ragweed, Common [20]; rate 0.125 kg/ha) | Postemergence herbicidal rating AMBEL (AMBEL Ragweed, Common [23]; 0.016 kg/ha) | Postemergence herbicidal rating AMBEL (AMBEL Ragweed, Common [23]; 0.032 kg/ha) | Postemergence herbicidal rating AMBEL (AMBEL Ragweed, Common [23]; 0.062 kg/ha) | Postemergence herbicidal rating ABUTH (ABUTH Velvetleaf [24]; 0.008 kg/ha) | Postemergence herbicidal rating ABUTH (ABUTH Velvetleaf [24]; 0.016 kg/ha) | Postemergence herbicidal rating ABUTH (ABUTH Velvetleaf [24]; 0.032 kg/ha) | Postemergence herbicidal rating ABUTH (ABUTH Velvetleaf [24]; 0.062 kg/ha)
7.5: Postemergence herbicidal rating GLXMAW (GLXMAW Soybean, Williams [3]; 0.062 kg/ha)
2.5: Postemergence herbicidal rating ORYSAT (ORYSAT Rice, Tebonnet [5]; 0.008 kg/ha) | Postemergence herbicidal rating TRZAWR ([12]; 0.008 kg/ha)
2.0: Postemergence herbicidal rating SETVI (SETVI Foxtail, Green [7]; 0.008 kg/ha) | Postemergence herbicidal rating ECHCG (ECHOG Barnyardgrass [16]; 0.008 kg/ha) | Postemergence herbicidal rating ECHCG (ECHOG Barnyardgrass [16]; 0.016 kg/ha) | Postemergence herbicidal rating AMBEL (AMBEL Ragweed, Common [23]; 0.008 kg/ha)
